Assay results reported in patent US20220380378A1 (ESSA Pharma, Inc., priority 2021, published 2022).

Each compound was assayed against T1, androgen receptor (AR) (Homo sapiens, UniProt P10275, T878A) (assay: Androgen-induced PSA (6.1 kb)-luciferase reporter assay in LNCaP cells (R1881 1 nM)). Details: 24 h, read-out: PSA-Luc IC50 Range.
T1 sequence (P10275 1-920 T878A): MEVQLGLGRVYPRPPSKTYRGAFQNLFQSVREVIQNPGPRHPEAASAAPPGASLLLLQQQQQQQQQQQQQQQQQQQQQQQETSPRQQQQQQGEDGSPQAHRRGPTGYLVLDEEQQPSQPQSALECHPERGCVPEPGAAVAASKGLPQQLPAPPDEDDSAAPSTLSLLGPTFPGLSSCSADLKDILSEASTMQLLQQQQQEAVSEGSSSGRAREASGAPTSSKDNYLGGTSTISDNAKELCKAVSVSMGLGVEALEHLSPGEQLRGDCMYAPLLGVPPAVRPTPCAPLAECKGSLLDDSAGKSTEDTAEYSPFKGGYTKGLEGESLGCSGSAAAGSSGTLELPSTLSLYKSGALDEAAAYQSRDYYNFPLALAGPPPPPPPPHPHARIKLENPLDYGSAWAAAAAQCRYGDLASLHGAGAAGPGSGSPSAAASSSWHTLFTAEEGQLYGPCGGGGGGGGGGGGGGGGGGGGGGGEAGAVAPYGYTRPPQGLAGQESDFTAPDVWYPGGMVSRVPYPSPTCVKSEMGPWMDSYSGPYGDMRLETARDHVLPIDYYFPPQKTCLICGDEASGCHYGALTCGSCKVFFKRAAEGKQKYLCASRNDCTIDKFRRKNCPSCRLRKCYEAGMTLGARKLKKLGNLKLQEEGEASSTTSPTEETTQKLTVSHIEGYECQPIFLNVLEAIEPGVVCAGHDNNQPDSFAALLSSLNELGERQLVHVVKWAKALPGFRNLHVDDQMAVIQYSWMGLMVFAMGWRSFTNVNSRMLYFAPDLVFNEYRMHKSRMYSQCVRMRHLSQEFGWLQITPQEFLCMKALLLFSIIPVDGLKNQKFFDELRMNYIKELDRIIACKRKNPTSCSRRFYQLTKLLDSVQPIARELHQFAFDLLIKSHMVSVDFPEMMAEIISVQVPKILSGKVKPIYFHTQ
Format: cell-based
Design: endogenous in cells; host or cells: LNCaP
Procedure: The PSA (6.1 kb)-luciferase reporter contains functional AREs (androgen response elements) to which AR binds in response to androgen to induce luciferase activity. LNCaP cells were transiently transfected with the PSA (6.1 kb)-luciferase reporter for 24 h, and then pretreated with vehicle (DMSO) or indicated concentration of representative compounds for one hour prior to the addition of synthetic androgen, R1881 (1 nM). After 24 h of incubation with R1881, the cells were harvested, and relative luciferase activities were determined (FIG. 1). To determine the IC50, treatments were normalized to vehicle control activity induced by R1881 (Table 2).
Luciferase Assay: Cells were lysed using Passive Lysis Buffer (Promega) and then collected into V-bottom 96-well tissue culture plates. Lysates were centrifuged at 4° C. for 5 minutes at 3000 rpm. To measure luminescence of LNCaP cell lysates the Firefly Luciferase Assay System (Promega) was employed, according to manufacturer's protocol. Relative luminescence units (RLU) in cell lysates were detected for 10 seconds using Promega GloMax-Multi Detection Luminometer (Promega). Values were normalized to protein content. GraphPad Prism graphing software was used to calculate IC50 values.
Statistical analyses were performed using GraphPad Prism (Version 6.01 for Windows; La Jolla, Calif., USA). Comparisons between treatment and control groups were compared using Two-Way ANOVA with post-hoc Dunnett's and Tukey's tests. Differences were considered statistically significant at P values less than 0.05.
`CS(=O)(=O)Nc1nccc(COc2ccc3c(-c4cc(Cl)c(OCCCl)c(C#N)c4)csc3c2)n1` [Compound A61] gave an IC50 of less than 500 nM.
`CC(C)(c1ccc(OCC23CC(CNS(C)(=O)=O)(C2)C3)cc1)c1cc(Cl)c(OCCCl)c(C#N)c1` [Compound A277] was tested, and the IC50 was less than 500 nM.
In the case of `CC(NC12CC(NS(C)(=O)=O)(C1)C2)c1ccc2c(ccn2-c2cc(Cl)c(OCCCl)c(C#N)c2)c1` (stereo not drawn) [Compound A184], the IC50 is reported as greater than 2000 nM.
Compound `CS(=O)(=O)N1CC2(CC(COc3ccc4c(ccn4-c4cc(Cl)c(OCCCl)c(C#N)c4)c3)C2)C1` [Compound A162] has an IC50 of 500 to 2000 nM.
`CC1(C)CN(c2c(F)cc(C(C)(C)c3ccc(OCc4ccnc(NS(C)(=O)=O)n4)cc3)cc2C#N)C1` [Compound A260] gave an IC50 of 500 to 2000 nM.
For `CC(C)(c1ccc(OCc2ccnc(NS(C)(=O)=O)n2)cc1)c1cc(Cl)c(-c2ccc(Cl)cc2)c(C#N)c1` [Compound A2, N-(4-((4-(2-(2,4′-dichloro-6-cyano-[1,1′-biphenyl]-4-yl)propan-2-yl)phenoxy)methyl)pyrimidin-2-yl)methanesulfonamide], the IC50 was greater than 2000 nM.
Work on `CC(C)(c1ccc(Oc2cccc3nc(NS(C)(=O)=O)ncc23)cc1)c1cc(Cl)c(OCCCl)c(C#N)c1` [Compound A117] yielded an IC50 of 500 to 2000 nM.
Compound `CS(=O)(=O)Nc1nccc(COc2ccc3c(c2)OCCN3c2cc(Cl)c(OCCCl)c(C#N)c2)n1` [Compound A28, N-(4-(((4-(3-chloro-4-(2-chloroethoxy)-5-cyanophenyl)-3,4-dihydro-2H-benzo[b][1,4]oxazin-7-yl)oxy)methyl)pyrimidin-2-yl)methanesulfonamide] has an IC50 of 500 to 2000 nM.
`CS(=O)(=O)NC[C@H]1CC[C@H](COc2ccc3c(ccn3-c3cc(Cl)c(OCCCl)c(C#N)c3)c2)CC1` [Compound A209] gave an IC50 of 500 to 2000 nM.
For `Cn1nc(NC(=O)C(F)(F)F)cc1COc1ccc(C(C)(C)c2cc(Cl)c(OCCCl)c(C#N)c2)cc1` [Compound A127], the IC50 was 500 to 2000 nM.
`CC(Oc1ccc2c(ccn2-c2cc(Cl)c(OCCCl)c(C#N)c2)c1)C1CN(S(C)(=O)=O)C1` (stereo not drawn) [Compound A159] gave an IC50 of 500 to 2000 nM.
For `CCC(O)COc1c(Cl)cc(C(C)(C)c2ccc(OCc3ccnc(NS(C)(=O)=O)n3)cc2)cc1C#N` (stereo not drawn) [Compound A174], the IC50 was greater than 2000 nM.
`CS(=O)(=O)NC12CC(COc3ccc4c(-c5cc(Cl)c(OCCCl)c(C#N)c5)csc4c3)(C1)C2` [Compound A138] gave an IC50 greater than 2000 nM.
For `CS(=O)(=O)N1CC(O)(COc2ccc3c(ccn3-c3cc(Cl)c(OCCCl)c(C#N)c3)c2)C1` [Compound A158], the IC50 was 500 to 2000 nM.
In the case of `CS(=O)(=O)N[C@H]1CC[C@H](COc2ccc3c(ccn3-c3cc(Cl)c(OCCCl)c(C#N)c3)c2)CC1` [Compound A58], the IC50 is reported as greater than 2000 nM.
`CS(=O)(=O)Nc1nccc(COc2ccc3c(ccn3-c3cc(Cl)c(OCC(F)(F)F)c(C#N)c3)c2)n1` [Compound A70] was tested, and the IC50 was 500 to 2000 nM.
In the case of `Cc1nc(NS(C)(=O)=O)ncc1COc1ccc(C(C)(C)c2cc(Cl)c(OCCCl)c(C#N)c2)cc1` [Compound A91], the IC50 is reported as 500 to 2000 nM.
With `CS(=O)(=O)N1CCN(Cc2ccc3c(ccn3-c3cc(Cl)c(OCCCl)c(C#N)c3)c2)CC1` [Compound A123] the IC50 was greater than 2000 nM.
`CS(=O)(=O)NC12CC(C(=O)Nc3ccc4c(ccn4-c4cc(Cl)c(OCCCl)c(C#N)c4)c3)(C1)C2` [Compound A133] gave an IC50 greater than 2000 nM.
`CC(C)(c1ccc(OCC23CCC(NS(C)(=O)=O)(CC2)C3)cc1)c1cc(Cl)c(OCCCl)c(C#N)c1` [Compound A272] gave an IC50 of 500 to 2000 nM.
`CS(=O)(=O)N1CCCC1COc1ccc2c(ccn2-c2cc(Cl)c(OCCCl)c(C#N)c2)c1` (stereo not drawn) [Compound A201] gave an IC50 greater than 2000 nM.
Compound `CC(C)(c1ccc(-c2cnc3oc(NS(C)(=O)=O)nc3c2)cc1)c1cc(Cl)c(OCCCl)c(C#N)c1` [Compound A256] has an IC50 greater than 2000 nM.
Work on `CC1(NS(C)(=O)=O)CN(CCc2ccc3c(ccn3-c3cc(Cl)c(OCCCl)c(C#N)c3)c2)C1` [Compound A244] yielded an IC50 greater than 2000 nM.
`CC(C)(c1ccc(-c2ccc3sc(NS(C)(=O)=O)nc3c2)cc1)c1cc(Cl)c(OCCCl)c(C#N)c1` [Compound A275] showed an IC50 of 500 to 2000 nM.
In the case of `CS(=O)(=O)NCc1ccc(-c2ccc3c(ccn3-c3cc(Cl)c(OCCCl)c(C#N)c3)c2)cc1` [Compound A164], the IC50 is reported as greater than 2000 nM.
Compound `CS(=O)(=O)N1CCN(CCc2ccc3c(ccn3-c3cc(Cl)c(OCCCl)c(C#N)c3)c2)C(=O)C1` [Compound A125] has an IC50 greater than 2000 nM.
In the case of `COCc1c(F)cc(-n2ccc3cc(OCc4ccnc(NS(C)(=O)=O)n4)ccc32)cc1Cl` [Compound A74], the IC50 is reported as 500 to 2000 nM.
`CS(=O)(=O)NC1CCCN(CCc2ccc3c(ccn3-c3cc(Cl)c(OCCCl)c(C#N)c3)c2)C1` (stereo not drawn) [Compound A245] was tested, and the IC50 was greater than 2000 nM.
In the case of `CC(C)(c1ccc(OCC23CCC(NS(C)(=O)=O)(CC2)CC3)cc1)c1cc(Cl)c(OCCCl)c(C#N)c1` [Compound A273], the IC50 is reported as 500 to 2000 nM.
Work on `COc1c(Cl)cc(C(C)(C)c2ccc(OCC34CC(NS(C)(=O)=O)(C3)C4)cc2)cc1C#N` [Compound A268] yielded an IC50 of 500 to 2000 nM.
`Cc1cc2cc(OCC34CC(NS(C)(=O)=O)(C3)C4)ccc2n1-c1cc(Cl)c(OCCCl)c(C#N)c1` [Compound A139] was tested, and the IC50 was greater than 2000 nM.
`CS(=O)(=O)NC12CC(COc3ccc4c(ccn4-c4cc(Cl)c(OCC(F)(F)F)c(C#N)c4)c3)(C1)C2` [Compound A167] gave an IC50 of 500 to 2000 nM.
With `CC(C)(c1ccc(OCc2ccnc(NS(C)(=O)=O)n2)cc1)c1cc(F)c(N2CC3(CCC3)C2)c(C#N)c1` [Compound A240, N-(4-((4-(2-(3-cyano-5-fluoro-4-(2-azaspiro[3.3]heptan-2-yl)phenyl)propan-2-yl)phenoxy)methyl)pyrimidin-2-yl)methanesulfonamide] the IC50 was greater than 2000 nM.
Compound `CS(=O)(=O)N1CC2(CN(Cc3ccc4c(ccn4-c4cc(Cl)c(OCCCl)c(C#N)c4)c3)C2)C1` [Compound A241, 3-chloro-2-(2-chloroethoxy)-5-(5-((6-(methylsulfonyl)-2,6-diazaspiro[3.3]heptan-2-yl)methyl)-1H-indol-1-yl)benzonitrile] has an IC50 greater than 2000 nM.
For `CS(=O)(=O)N1CC(CCOc2ccc3c(ccn3-c3cc(Cl)c(OCCCl)c(C#N)c3)c2)C1` [Compound A225], the IC50 was 500 to 2000 nM.
`CC(C)(c1ccc(-c2ccc3c(cnn3S(C)(=O)=O)c2)cc1)c1cc(Cl)c(OCCCl)c(C#N)c1` [Compound A111] was tested, and the IC50 was greater than 2000 nM.
For `CS(=O)(=O)N1CC2(CCN(Cc3ccc4c(ccn4-c4cc(Cl)c(OCCCl)c(C#N)c4)c3)CC2)C1` [Compound A235], the IC50 was greater than 2000 nM.
In the case of `CC(C)(c1ccc(-c2c[nH]c3c(NS(C)(=O)=O)ncnc23)cc1)c1cc(Cl)c(OCCCl)c(C#N)c1` [Compound A211], the IC50 is reported as greater than 2000 nM.
Compound `CS(=O)(=O)N1CCC(COc2ccc3c(ccn3-c3cc(Cl)c(OCCCl)c(C#N)c3)c2)CC1` [Compound A55] has an IC50 greater than 2000 nM.
With `CC(C)(c1ccc(-c2ccc3c(c2)OCC(CNS(C)(=O)=O)O3)cc1)c1cc(Cl)c(OCCCl)c(C#N)c1` (stereo not drawn) [Compound A230] the IC50 was greater than 2000 nM.
With `CS(=O)(=O)N1CCCC(Oc2ccc3c(ccn3-c3cc(Cl)c(OCCCl)c(C#N)c3)c2)CC1` (stereo not drawn) [Compound A202] the IC50 was greater than 2000 nM.
Compound `Cn1nc(-c2cc(Cl)c(OCCCl)c(C#N)c2)c2ccc(OCc3ccnc(NS(C)(=O)=O)n3)cc21` [Compound A77] has an IC50 greater than 2000 nM.
`C[C@H](Oc1ccc(C(C)(C)c2cc(Cl)c(OCCCl)c(C#N)c2)cc1)C12CC(NS(C)(=O)=O)(C1)C2` [Compound A265] showed an IC50 of 500 to 2000 nM.
Compound `CC(C)COc1c(Cl)cc(-n2ccc3cc(OCc4ccnc(NS(C)(=O)=O)n4)ccc32)cc1C#N` [Compound A71] has an IC50 greater than 2000 nM.
`CS(=O)(=O)Nc1nccc(COc2ccc3c(-c4cc(Cl)c(OCCCl)c(C#N)c4)c[nH]c3c2)n1` [Compound A218] gave an IC50 greater than 2000 nM.
